Measurements from the supplement of paper PMC10307832.

Columns and labels:
Test in all cases: relative viability (nuclei count vs DMSO), 5 days (fraction); higher = more cells survive
ABC-1 = tested on: ABC-1
In short: (§1)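 A single step with final 0.05% Triton X-100, 1% formaldehyde and 1 ug/ml Hoechst fixed the cells and stained nuclei 5 days after treatment. Lung cancer cell lines in 1536-well plates had been treated by pin tool the day after seeding with one drug alone or a fixed anchor-drug dose plus five library-drug doses (not always all listed) in √10 steps, and nuclei were counted on 4× images. Relative viability is the ratio of nuclei in treated wells to nuclei in vehicle wells, taken as the median of duplicate plates.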

BEN = tested on: BEN
In short: as §1

EPLC-272H = tested on: EPLC-272H
In short: as §1

HCC-827 = tested on: HCC-827
In short: as §1

HOP-62 = tested on: HOP-62
In short: as §1

LU99A = tested on: LU99A
In short: as §1

NCI-H1355 = tested on: NCI-H1355
In short: as §1

NCI-H1666 = tested on: NCI-H1666
In short: as §1

NCI-H1792 = tested on: NCI-H1792
In short: as §1

NCI-H1975 = tested on: NCI-H1975
In short: as §1

NCI-H2170 = tested on: NCI-H2170
In short: as §1

NCI-H23 = tested on: NCI-H23
In short: as §1

NCI-H2405 = tested on: NCI-H2405
In short: as §1

NCI-H3122 = tested on: NCI-H3122
In short: as §1

NCI-H322M = tested on: NCI-H322M
In short: as §1

NCI-H358 = tested on: NCI-H358
In short: as §1

NCI-H520 = tested on: NCI-H520
In short: as §1

NCI-H647 = tested on: NCI-H647
In short: as §1

NCI-H727 = tested on: NCI-H727
In short: as §1

NCI-H838 = tested on: NCI-H838
In short: as §1

PC-14 = tested on: PC-14
In short: as §1

SW 900 = tested on: SW 900
In short: as §1

UMC-11 = tested on: UMC-11
In short: as §1

Compound: CCCCCCCCCCCC1=C(O)C(=O)C=C(O)C1=O [Embelin] + CC(=O)c1c(C)c2cnc(Nc3ccc(N4CCNCC4)cn3)nc2n(C2CCCC2)c1=O [Palbociclib] (partner 0.5 µM)
- relative viability (ABC-1; first compound 0.08 µM): 0.752
- relative viability (ABC-1; first compound 0.8 µM): 0.664
- relative viability (ABC-1; first compound 2.53 µM): 0.733
- relative viability (ABC-1; first compound 8 µM): 0.72
- relative viability (BEN; first compound 0.08 µM): 0.486
- relative viability (BEN; first compound 0.8 µM): 0.545
- relative viability (BEN; first compound 2.53 µM): 0.486
- relative viability (BEN; first compound 8 µM): 0.481
- relative viability (EPLC-272H; first compound 0.08 µM): 0.361
- relative viability (EPLC-272H; first compound 0.8 µM): 0.328
- relative viability (EPLC-272H; first compound 2.53 µM): 0.358
- relative viability (EPLC-272H; first compound 8 µM): 0.324
- relative viability (HCC-827; first compound 0.08 µM): 0.506
- relative viability (HCC-827; first compound 0.8 µM): 0.486
- relative viability (HCC-827; first compound 2.53 µM): 0.511
- relative viability (HCC-827; first compound 8 µM): 0.461
- relative viability (HOP-62; first compound 0.08 µM): 0.433
- relative viability (HOP-62; first compound 0.8 µM): 0.489
- relative viability (HOP-62; first compound 2.53 µM): 0.451
- relative viability (HOP-62; first compound 8 µM): 0.392
- relative viability (LU99A; first compound 0.08 µM): 0.471
- relative viability (LU99A; first compound 0.8 µM): 0.411
- relative viability (LU99A; first compound 2.53 µM): 0.394
- relative viability (LU99A; first compound 8 µM): 0.374
- relative viability (NCI-H1355; first compound 0.08 µM): 0.411
- relative viability (NCI-H1355; first compound 0.8 µM): 0.416
- relative viability (NCI-H1355; first compound 2.53 µM): 0.398
- relative viability (NCI-H1355; first compound 8 µM): 0.366
- relative viability (NCI-H1666; first compound 0.08 µM): 0.638
- relative viability (NCI-H1666; first compound 0.8 µM): 0.624
- relative viability (NCI-H1666; first compound 2.53 µM): 0.641
- relative viability (NCI-H1666; first compound 8 µM): 0.681
- relative viability (NCI-H1792; first compound 0.08 µM): 0.625
- relative viability (NCI-H1792; first compound 0.8 µM): 0.719
- relative viability (NCI-H1792; first compound 2.53 µM): 0.723
- relative viability (NCI-H1792; first compound 8 µM): 0.766
- relative viability (NCI-H1975; first compound 0.08 µM): 0.601
- relative viability (NCI-H1975; first compound 0.8 µM): 0.605
- relative viability (NCI-H1975; first compound 2.53 µM): 0.783
- relative viability (NCI-H1975; first compound 8 µM): 0.586
- relative viability (NCI-H2170; first compound 0.08 µM): 0.407
- relative viability (NCI-H2170; first compound 0.8 µM): 0.418
- relative viability (NCI-H2170; first compound 2.53 µM): 0.516
- relative viability (NCI-H2170; first compound 8 µM): 0.382
- relative viability (NCI-H23; first compound 0.08 µM): 0.516
- relative viability (NCI-H23; first compound 0.8 µM): 0.543
- relative viability (NCI-H23; first compound 2.53 µM): 0.533
- relative viability (NCI-H23; first compound 8 µM): 0.594
- relative viability (NCI-H2405; first compound 0.08 µM): 0.543
- relative viability (NCI-H2405; first compound 0.8 µM): 0.575
- relative viability (NCI-H2405; first compound 2.53 µM): 0.511
- relative viability (NCI-H2405; first compound 8 µM): 0.535
- relative viability (NCI-H3122; first compound 0.08 µM): 0.18
- relative viability (NCI-H3122; first compound 0.8 µM): 0.236
- relative viability (NCI-H3122; first compound 2.53 µM): 0.175
- relative viability (NCI-H3122; first compound 8 µM): 0.186
- relative viability (NCI-H322M; first compound 0.08 µM): 0.456
- relative viability (NCI-H322M; first compound 0.8 µM): 0.528
- relative viability (NCI-H322M; first compound 2.53 µM): 0.493
- relative viability (NCI-H322M; first compound 8 µM): 0.512
- relative viability (NCI-H358; first compound 0.08 µM): 0.133
- relative viability (NCI-H358; first compound 0.8 µM): 0.161
- relative viability (NCI-H358; first compound 2.53 µM): 0.141
- relative viability (NCI-H358; first compound 8 µM): 0.131
- relative viability (NCI-H520; first compound 0.08 µM): 0.303
- relative viability (NCI-H520; first compound 0.8 µM): 0.186
- relative viability (NCI-H520; first compound 2.53 µM): 0.246
- relative viability (NCI-H520; first compound 8 µM): 0.214
- relative viability (NCI-H647; first compound 0.08 µM): 0.405
- relative viability (NCI-H647; first compound 0.8 µM): 0.448
- relative viability (NCI-H647; first compound 2.53 µM): 0.528
- relative viability (NCI-H647; first compound 8 µM): 0.38
- relative viability (NCI-H727; first compound 0.08 µM): 0.657
- relative viability (NCI-H727; first compound 0.8 µM): 0.701
- relative viability (NCI-H727; first compound 2.53 µM): 0.693
- relative viability (NCI-H727; first compound 8 µM): 0.661
- relative viability (NCI-H838; first compound 0.08 µM): 0.249
- relative viability (NCI-H838; first compound 0.8 µM): 0.232
- relative viability (NCI-H838; first compound 2.53 µM): 0.224
- relative viability (NCI-H838; first compound 8 µM): 0.21
- relative viability (PC-14; first compound 0.08 µM): 0.548
- relative viability (PC-14; first compound 0.8 µM): 0.597
- relative viability (PC-14; first compound 2.53 µM): 0.819
- relative viability (PC-14; first compound 8 µM): 0.569
- relative viability (SW 900; first compound 0.08 µM): 0.644
- relative viability (SW 900; first compound 0.8 µM): 0.576
- relative viability (SW 900; first compound 2.53 µM): 0.668
- relative viability (SW 900; first compound 8 µM): 0.549
- relative viability (UMC-11; first compound 0.08 µM): 0.337
- relative viability (UMC-11; first compound 0.8 µM): 0.36
- relative viability (UMC-11; first compound 2.53 µM): 0.323
- relative viability (UMC-11; first compound 8 µM): 0.37
